Assays:
Format in all cases: in vivo
[1] = test system: Veronica persica (VERPE); experiment: E. Herbicidal post-emergence efficacy, VERPE
Method in brief: (§1)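 Compounds applied at 320 g/ha or less as a foliar spray (600 l/ha, 0.5% additive) to one-leaf-stage greenhouse plants grown in sandy loam. Damage is visually scored in percent relative to untreated plants after about 3 weeks.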

[2] = test system: Alopecurus myosuroides (ALOMY); experiment: A. Herbicidal pre-emergence efficacy, ALOMY; conditions: scored visually after about 3 weeks vs untreated controls
Source text: Seeds of mono- and dicotyledonous weed plants were placed in plastic pots in sandy loam soil (doubly sown with one species each of mono- or dicotyledonous weed plants per pot) and covered with soil. The compounds of the invention, formulated in the form of wettable powders (WP) or as emulsion concentrates (EC), were then applied onto the surface of the covering soil as aqueous suspension or emulsion with addition of 0.5% additive at a water application rate of 600 liters per hectare (converted). After the treatment, the pots were placed in a greenhouse and kept under good growth conditions for the test plants. After about 3 weeks, the efficacy of the preparations was scored visually in comparison with untreated controls as percentages.
For example, • 100% efficacy=plants have died, • 0% efficacy=like untreated control plants.
Tables A1a to A12c below show the effects of selected compounds of the general formula (I) according to table 1 on various harmful plants at an application rate corresponding to 1280 g/ha or less, which were obtained by the experimental procedure mentioned above.

[3] = test system: Poa annua (POAAN); experiment: A. Herbicidal pre-emergence efficacy, POAAN
Method in brief: (§2)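 Applied before emergence onto covering soil at rates of 1280 g/ha or less, using 600 L/ha spray water with 0.5% additive. Scoring: visual % efficacy after ~3 weeks, greenhouse.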

[4] = test system: Amaranthus retroflexus (AMARE); experiment: C. Herbicidal pre-emergence efficacy, AMARE; conditions: scored after about 3 weeks
Method in brief: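 Pre-emergence test: formulated compounds sprayed as aqueous suspension or emulsion with 0.5% additive at 600 l/ha onto soil covering sown seeds, at rates corresponding to 320 g/ha or less. After about 3 weeks in greenhouse, efficacy scored visually as percent versus untreated controls (100% = plants dead).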

[5] = test system: Echinochloa crus-galli (ECHCG); experiment: A. Herbicidal pre-emergence efficacy, ECHCG; conditions: scored visually after about 3 weeks vs untreated controls
Method in brief: as §2

[6] = test system: Abutilon theophrasti (ABUTH); experiment: B. Herbicidal post-emergence efficacy, ABUTH; conditions: rated visually after about 3 weeks
Method in brief: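 Post-emergence greenhouse test: one-leaf-stage plants, compound (WP/EC, +0.5% additive, 600 L/ha water, ≤1280 g/ha) applied to green parts; % efficacy scored visually vs untreated after ~3 wk; 100% = plants died.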

[7] = test system: Viola tricolor (VIOTR); experiment: E. Herbicidal post-emergence efficacy, VIOTR
Method in brief: as §1

[8] = test system: Abutilon theophrasti (ABUTH); experiment: E. Herbicidal post-emergence efficacy, ABUTH
Method in brief: as §1

| SMILES | Post-emergence efficacy against VERPE in % ([1]; application rate 80 g/ha) [%] | Post-emergence efficacy against VERPE in % ([1]; application rate 320 g/ha) [%] | Pre-emergence efficacy against ALOMY ([2]; 320 g/ha) [%] | Pre-emergence efficacy against ALOMY ([2]; 1280 g/ha) [%] | Pre-emergence efficacy against POAAN ([3]; dosage 80 g/ha) [%] | Pre-emergence efficacy against POAAN ([3]; dosage 320 g/ha) [%] | Pre-emergence efficacy against POAAN ([3]; dosage 1280 g/ha) [%] | Pre-emergence efficacy against AMARE ([4]; 80 g/ha) [%] | Pre-emergence efficacy against AMARE ([4]; 320 g/ha) [%] | Pre-emergence efficacy against ECHCG ([5]; 320 g/ha) [%] | Pre-emergence efficacy against ECHCG ([5]; 1280 g/ha) [%] | Post-emergence efficacy against ABUTH in % ([6]; 320 g/ha) [%] | Post-emergence efficacy against ABUTH in % ([6]; 1280 g/ha) [%] | Post-emergence efficacy against VIOTR in % ([7]; application rate 320 g/ha) [%] | Post-emergence efficacy against ABUTH in % ([8]; application rate 320 g/ha) [%] | Post-emergence efficacy against ABUTH in % ([8]; application rate 80 g/ha) [%] | Post-emergence efficacy against VIOTR in % ([7]; application rate 80 g/ha) [%] | Pre-emergence efficacy against ECHCG ([5]; 80 g/ha) [%] | Post-emergence efficacy against ABUTH in % ([6]; 80 g/ha) [%] |
| --- | --- | --- | --- | --- | --- | --- | --- | --- | --- | --- | --- | --- | --- | --- | --- | --- | --- | --- | --- |
| CCCS(=O)(=O)Oc1ccccc1Oc1ncc(Cl)cn1 [Example I-3] | 80 | 90 | 90 | 100 | 90 | 100 | 100 | 100 | 100 | 100 | 100 | 90 | 100 |  |  |  |  |  |  |
| CC(C)CS(=O)(=O)Oc1ccccc1Oc1ncc(Cl)cn1 [Example I-7, [2-(5-Chloropyrimidin-2-yl)oxyphenyl] 2-methylpropane-1-sulfonate] | 90 | 100 |  |  | 100 | 100 | 100 | 100 | 100 | 100 | 100 | 90 | 90 | 90 | 100 |  |  |  |  |
| O=S(=O)(CCl)Oc1ccccc1Oc1ncc(Cl)cn1 [Example I-9] | 80 | 90 |  |  |  | 90 | 100 | 100 | 100 |  | 100 | 90 | 90 | 80 | 80 | 80 |  |  |  |
| Cc1cccc(OS(=O)(=O)CCCCl)c1Oc1ncc(Cl)cn1 [Example I-12] | 100 | 100 |  |  |  | 100 | 100 | 100 | 100 | 90 | 100 |  |  | 80 | 90 |  |  |  |  |
| O=S(=O)(CCCCCl)Oc1ccccc1Oc1ncc(Cl)cn1 [Example I-15] | 90 | 100 |  |  | 100 | 100 | 100 | 90 | 100 | 100 | 100 | 100 | 100 | 100 | 80 |  | 90 | 100 | 100 |
| CCCCCS(=O)(=O)Oc1ccccc1Oc1ncc(Cl)cn1 [Example I-24] | 90 | 100 |  |  |  | 100 | 100 | 100 | 100 | 100 | 100 | 90 | 90 | 80 | 90 |  |  |  |  |
| Cc1cccc(Oc2ncc(Cl)cn2)c1OS(=O)(=O)CCCC(F)(F)F [Example I-28, 2-[(5-Chloropyrimidin-2-yl)oxy]-6-methylphenyl 4,4,4-trifluorobutane-1-sulfonate] |  |  |  | 100 | 90 | 100 | 100 |  |  | 100 | 100 | 100 | 100 |  |  |  |  | 90 |  |
| Cc1cccc(Oc2ncc(Cl)cn2)c1OS(=O)(=O)CCC(F)(F)F [Example I-29] |  |  |  | 90 | 90 | 100 | 100 |  |  | 100 | 100 | 100 | 100 |  |  |  |  |  | 90 |
| O=S(=O)(CCC(F)(F)F)Oc1c(Br)cccc1Oc1ncc(Cl)cn1 [Example I-31] |  |  |  | 90 | 90 | 100 | 100 |  |  |  | 100 | 100 | 100 |  |  |  |  |  | 90 |
| O=S(=O)(CCC(F)(F)F)Oc1c(Cl)cccc1Oc1ncc(Cl)cn1 [Example I-38] | 100 | 100 |  | 100 |  | 100 | 100 | 100 | 100 | 90 | 100 |  |  | 100 | 100 |  | 100 |  |  |
| O=S(=O)(CCC(F)(F)F)Oc1c(Br)cccc1Oc1ncc(F)cn1 [Example I-43] | 100 | 100 |  | 90 |  | 100 | 100 | 100 | 100 | 100 | 100 | 90 | 100 | 100 |  |  | 90 |  |  |
| Cc1cccc(Oc2ncc(F)cn2)c1OS(=O)(=O)CCC(F)(F)F [Example I-45] | 80 | 100 | 90 | 100 | 90 | 100 | 100 | 80 | 100 | 100 | 100 | 100 | 100 | 100 |  |  | 90 | 90 |  |
| O=S(=O)(CCC1CC1)Oc1c(F)cccc1Oc1ncc(Cl)cn1 [Example I-55] | 100 | 100 |  |  |  | 90 | 100 | 100 | 100 | 100 | 100 | 90 | 90 | 80 | 100 |  |  |  | 90 |
| O=S(=O)(CCC(F)=C(F)F)Oc1c(Cl)cccc1Oc1ncc(Cl)cn1 [Example I-73] | 90 | 100 |  |  |  | 90 | 100 | 90 | 100 |  | 90 | 100 | 100 | 100 | 80 |  | 90 |  | 90 |

From patent US20240174618A1, “SUBSTITUTED (2-HETEROARYLOXYPHENYL)SULFONATES, SALTS THEREOF AND THEIR USE AS HERBICIDAL AGENTS” (Bayer Aktiengesellschaft, priority 2021, published 2024)
